From PMC3446762 (Viruses, 2012)

Columns and labels:
EBOV = conditions: 20 µM; cited from earlier work
host cells = conditions: cited from earlier work
EBOV Zaire-95 isolate = format: cell-based, Ebola (EBOV)
MARV Ci67 isolate = format: cell-based, Marburg (MARV)
HeLa cells [1] = conditions: human
HeLa cells [2] = conditions: human; remark: listed apart in the source

SMILES | EBOV inhibition (EBOV) [%] | toxicity to host cells (host cells) | cellular protection during EBOV infection (EBOV Zaire-95 isolate) [%] | cellular protection during MARV infection (MARV Ci67 isolate) [%] | cellular toxicity (reduction in cell number), EBOV assay (HeLa cells [1]) | cellular toxicity (reduction in cell number), MARV assay (HeLa cells [2])
Cc1cc(NCCN2CCOCC2)c2c(ccc3c2ccc2nc(C)cc(NCCN4CCOCC4)c23)n1 [Compound 1] | 53 | non-toxic to host cells | – | – | – | –
CCN(CC)CCCNc1cc(C)nc2ccc3c(ccc4nc(C)cc(NCCCN(CC)CC)c43)c12 [Compound 2] | 13 | toxic to host cells | – | – | – | –
CCN(CC)CCCNc1ccnc2ccc3c(ccc4nccc(NCCCN(CC)CC)c43)c12 [Compound 4] | – | – | 100 | 100 | 80–90% | 80–90%
